Measurements taken from patent US20040176349A1, “Antibacterial composition” (priority 2001, published 2004).
Values after ≈ are worked out from the molar mass of the structure shown.

Assays:
[1] = tested on: E.faecalis 78097 (van B); assay: Checkerboard microdilution MIC with PFOB, Table 2; format: cell-based; conditions: E.faecalis 78097 (van B); alone
Text: (§1) The aim of the study was to detect any synergy between PFOB and the other antibiotics. For the purposes of the study, synergy was defined in accordance with the FIC (fractional inhibitory concentration) index, as disclosed by Lorian (1991, In “Antibiotics in Laboratory Medicine” 3rd edition, Eds. Williams & Wilkins; esp. p 434-443). In essence, if the combination of test compounds gives at least a 4-fold reduction in the FIC value for each compound, then a synergy may be considered to exist (i.e. FIC of the combination <0.5=synergy; FIC 0.5-2.0=“indifference”; and FIC >2=antagonism).
(§2) In Table 2, results in the checkerboard indicating synergy are hatched, and specific optimum synergistic combinations are boxed.

[2] = tested on: E. faecalis ATCC 29212; assay: Checkerboard microdilution MIC with PFOB, Table 2; format: cell-based; conditions: E. faecalis ATCC 29212; alone
Text: as §1, §2

[3] = tested on: E. faecalis 5659 (vanA); assay: Checkerboard microdilution MIC with PFOB, Table 2; format: cell-based; conditions: E. faecalis 5659 (vanA); alone
Text: as §1, §2

[4] = tested on: E. faecalis ATCC 10541; assay: Checkerboard microdilution MIC with PFOB, Table 2; format: cell-based; conditions: E. faecalis ATCC 10541; alone
Text: The aim of the study was to detect any synergy between PFOB and the other antibiotics. For the purposes of the study, synergy was defined in accordance with the FIC (fractional inhibitory concentration) index, as disclosed by Lorian (1991, In “Antibiotics in Laboratory Medicine” 3rd edition, Eds. Williams & Wilkins; esp. p 434-443).

[5] = tested on: enterococcal penicillin binding proteins (PBPs); assay: Radiolabelled penicillin competition assay for PBP affinity; set-up: species or system Enterococcus; conditions: in words
Experimental: Further experiments were conducted in an attempt to determine the mechanism of the unexpected synergy between antibiotics (as exemplified by Ceftazidime) and compounds in accordance with general formula I or II (as exemplified by PFOB). The affinity of PFOB for enterococcal penicillin binding proteins (PBPs) was investigated using a conventional radiolabelling assay (Boulton & Orr 1983 “Detection of bacterial penicillin binding proteins and their role in the interpretation of the mode of action of beta-lactam antibiotics” In “Antibiotics: Assessment of antimicrobial activity and resistance” Eds. Denver & Quesnel. Society for […], Technical Series 18, pp161-182, Academic Press”). In this assay, the inner bacterial membrane containing the PBPs was extracted, exposed to differing concentrations of test agent (i.e. PFOB) and excess radiolabelled penicillin, followed by separation and visualisation of the PBPs using gel electrophoresis and fluorography.

[6] = tested on: VRE 300 1590; assay: MIC, microbroth dilution (NCCLS), Table 1; format: cell-based, Enterococcus; conditions: compound alone; VRE 300 1590, vancomycin-resistant
Experimental: (§3) The minimum inhibitory concentration (MIC) of the compounds was determined using the microbroth dilution technique in accordance with NCCLS guidelines, employing Mueller-Hinton broth (National Committee for Clinical Laboratory Standards, NCCLS, 1995 “Methods for dilution antimicrobial susceptibility tests for bacteria that grow aerobically”—approved standard M7-A5).
(§4) The compounds were tested in isolation, at different concentrations.

[7] = tested on: VRE 1662; assay: MIC, microbroth dilution (NCCLS), Table 1; format: cell-based, Enterococcus; conditions: compound alone; VRE 1662, vancomycin-resistant
Experimental: as §3, §4

[8] = tested on: VRE 300 2043; assay: MIC, microbroth dilution (NCCLS), Table 1; format: cell-based, Enterococcus; conditions: compound alone; VRE 300 2043, vancomycin-resistant
Experimental: as §3, §4

[9] = tested on: VRE 300 1562; assay: MIC, microbroth dilution (NCCLS), Table 1; format: cell-based, Enterococcus; conditions: compound alone; VRE 300 1562, vancomycin-resistant
Experimental: as §3, §4

[10] = tested on: Enterococcus strains; assay: MIC against Enterococcus strains, summary of Example 1; format: cell-based; conditions: compound alone; all strains of Table 1; in words
Experimental: as §3, §4

[11] = tested on: E. faecalis NCTC 5957; assay: MIC, microbroth dilution (NCCLS), Table 1; format: cell-based; conditions: compound alone; E. faecalis NCTC 5957, vancomycin-susceptible
Experimental: as §3, §4

[12] = tested on: E. hirae ATCC 10541; assay: MIC, microbroth dilution (NCCLS), Table 1; format: cell-based; conditions: compound alone; E. hirae ATCC 10541, vancomycin-susceptible
Experimental: as §3, §4

[13] = tested on: E. faecalis 24592; assay: MIC, microbroth dilution (NCCLS), Table 1; format: cell-based; conditions: compound alone; E. faecalis 24592, vancomycin-susceptible
Experimental: as §3, §4

[14] = tested on: E. faecalis SFZ; assay: MIC, microbroth dilution (NCCLS), Table 1; format: cell-based; conditions: compound alone; E. faecalis SFZ, vancomycin-susceptible
Experimental: as §3, §4

[15] = tested on: E. faecalis Phillips; assay: MIC, microbroth dilution (NCCLS), Table 1; format: cell-based; conditions: compound alone; E. faecalis Phillips, vancomycin-susceptible
Experimental: as §3, §4

[16] = tested on: E. faecium NCTC 7171; assay: MIC, microbroth dilution (NCCLS), Table 1; format: cell-based; conditions: compound alone; E. faecium NCTC 7171, vancomycin-susceptible
Experimental: as §3, §4

[17] = tested on: E. faecalis SFZ (vancomycin-sensitive isolate, VSE); assay: Time-kill experiment (viable count); format: cell-based; conditions: FIG. 2, ceftazidime alone at 128 mg/L, PFOB alone at 64 mg/L
Text: FIG. 2 is a graph of Log viable count (cfu per ml) against time (in hours) for the VSE isolate in the presence or absence of the drugs. […] The isolates used in the Example are purely illustrative and not especially unusual.

`C[C@@H](O)[C@H]1C(=O)N2C(C(=O)O)=C(C(C)(C)CCCN)O[C@H]12` [(1′R, 5R, 6R)-2-(4-amino-1,1-dimethylbutyl)-6-(1′-hydroxyethyl) oxapenem-3-carboxylic acid] was tested, and the “MIC (alone) of PFOB” value [1] was over 32 µg/mL, the “MIC (alone) of PFOB” value [2] was over 32 µg/mL and the “MIC (alone) of PFOB” value [3] was over 32 µg/mL. For the same compound, the “MIC (alone) of PFOB” value [4] was 16 µg/mL, the “affinity for PBPs compared with clavulanic acid” value ([5]; FIG. 4A versus FIG. 4B) was “much higher affinity” and the “binding to PBPs in competition with radiolabelled penicillin” value ([5]; FIG. 4A, PFOB concentration of 3 mg/L) was “nearly all PBPs are bound by PFOB, except PBP3”. The MIC [6] was over 128 µg/mL, the MIC [7] was over 128 µg/mL and the MIC [8] was 32 µg/mL (≈ 107 µM). The MIC [9] was 128 µg/mL (≈ 429 µM), the “activity in isolation against the Enterococcus strains tested” value [10] was “no significant activity” and the MIC [11] was 32 µg/mL (≈ 107 µM). The MIC [12] was 16 µg/mL (≈ 53.6 µM), the MIC [13] was 32 µg/mL (≈ 107 µM) and the MIC [14] was 64 µg/mL (≈ 215 µM). For the same compound, the MIC [15] was 32 µg/mL (≈ 107 µM), the MIC [16] was 16 µg/mL (≈ 53.6 µM) and the “effect on growth (viable count, time-kill)” value [17] was “some inhibitory effect on growth”.
